From patent US5955076A, “Immunoactive peptides and antibodies and their use in anti-allergy treatment” (Peptide Therapeutics Limited, priority 1989, dated 1999)
Where no end group is shown, it is not given here.

How the values were obtained:
[1] = test system: rat peritoneal mast cells; design: dose or concentration left out as unconfirmed; conditions: concentration range; in words; cited from earlier work
[2] = test system: rats experimentally sensitised to ovalbumin; assay: Serum histamine after systemic ovalbumin challenge of immunised, experimentally sensitised rats; type: in vivo, rat

Question: For “KTKGSGFF [octapeptide (sequence 497-504)]”, which “non-cytolytic release of histamine from rat peritoneal mast cells in vitro” value (from here on “non-cytolytic release of histamine”) [1] is on record?
Answer: dose-dependent histamine release

Question: With “KTKGSGFFVF [decapeptide (sequence 497-506)]” as the substance, how does the “non-cytolytic release of histamine” value [1] read?
Answer: dose-dependent histamine release

Question: With “Lys-Tyr-Asn-Gly-Ser-Asn-Gln-Arg-Phe-Phe-Ile-Phe-NH2 (KYNGSNQRFFIF-NH2) [F49, histamine releasing rat ε-chain dodecapeptide, used as immunogen]” as the substance, how does the Histamine release ([2]; A = immunised before experimental sensitisation, Control A 300) read?
Answer: 0 ng/mL

Question: What about the Histamine release ([2]; B = immunised after experimental sensitisation, Control B 950) of the same substance?
Answer: 50 ng/mL

Question: Which “non-cytolytic release of histamine” value [1] does the source give for “RKTKGSGFF [nonapeptide (sequence 496-504)]” here?
Answer: dose-dependent histamine release
